The text below walks through data of ChEMBL document CHEMBL1201862, “PubChem BioAssay data set” (2004).

One may read the GI50 as the concentration that inhibits growth by half.

Among the test systems are HCC 2998; IGROV-1; M14; HCT-15; SK-MEL-2; A498; HOP-62; OVCAR-8; Malme-3M; SK-OV-3; TK-10; UO-31; NCI-H23; RXF 393; HCT-116; SR; OVCAR-5; RPMI-8226; OVCAR-4.
Common to all, as to experiment: DTP human tumour cell line panel, 48 h

SMILES strings stand for the structures.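 Growth conditions: 96-well plates. Treatment: test compound, 48 hours, 5 concentrations. Analysis: linear interpolation between bracketing concentrations; unreached endpoints set to highest concentration. GI50: concentration for 50% inhibition of growth.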 Activity calls are given as the source filed them. Rule as the data show it: active = GI50 up to about 1.1 µM and inactive = higher.

As to `CC1CC2=Nc3ccccc3NC(c3ccccc3)C2=C(O)O1` (stereo unspecified), the GI50 in the experiment on HCC 2998 is > 100 µM (inactive); in the experiment on IGROV-1, > 100 µM (inactive); with M14, > 100 µM (inactive); in the experiment with HCT-15, more than 100 µM; in the experiment with SK-MEL-2, > 100 µM (inactive); in the experiment with A498, > 100 µM (inactive). The GI50 with HOP-62, in the experiment on OVCAR-8, with Malme-3M, with SK-OV-3, in the experiment on TK-10 and in the experiment with UO-31 was > 100 µM (inactive) throughout. Besides, the GI50 in the experiment on NCI-H23 is > 100 µM (inactive); in the experiment with RXF 393 it was > 100 µM (inactive); in the experiment on HCT-116, > 100 µM (inactive); in the experiment with SR, 63.1 µM (inactive); with OVCAR-5, > 100 µM (inactive).

In the case of `CN(c1nc(=[N+](C)C)ss1)C1CCCCC1`, the GI50 in the experiment on HCC 2998 was > 100 µM (inactive); in the experiment on RPMI-8226, 62.1 µM (inactive); with IGROV-1, > 100 µM (inactive); in the experiment on M14, > 100 µM (inactive); with HCT-15, more than 100 µM; with SK-MEL-2, > 100 µM (inactive). Besides, the GI50 with OVCAR-4, with A498, in the experiment on HOP-62, with OVCAR-8, with Malme-3M and in the experiment with SK-OV-3 was > 100 µM (inactive) in each case. The GI50 with TK-10 was > 100 µM (inactive); with UO-31, > 100 µM (inactive); with NCI-H23 it was 74.3 µM (inactive); with RXF 393, > 100 µM (inactive); in the experiment on HCT-116, > 100 µM (inactive); in the experiment on SR, > 100 µM (inactive). Further, the GI50 in the experiment with OVCAR-5 was > 100 µM (inactive).

On to `COC1=CC(=O)c2ccccc2C1(CCC=C(C)C)C1=NC(C)(C)CO1` (stereo unspecified), for which the GI50 is 32.2 µM (inactive) with RPMI-8226; 84.5 µM (inactive) with IGROV-1; > 100 µM (inactive) in the experiment with M14; 61.1 µM in the experiment on HCT-15; 83.6 µM (inactive) in the experiment with SK-MEL-2; 71.9 µM (inactive) with OVCAR-4. The GI50 is > 100 µM (inactive) with HOP-62; 70.8 µM (inactive) with OVCAR-8; 78.7 µM (inactive) with Malme-3M; 86.5 µM (inactive) with SK-OV-3; > 100 µM (inactive) in the experiment on TK-10; 28.6 µM (inactive) in the experiment on UO-31. Moreover, the GI50 is 91.2 µM (inactive) in the experiment with NCI-H23, 56.4 µM (inactive) in the experiment on RXF 393, 48.4 µM (inactive) in the experiment with HCT-116 and 40.3 µM (inactive) in the experiment with SR.

Turning to `CCC1=CCN(c2cc(C)ccn2)OC1c1ccc(OC)cc1` (stereo unspecified), the GI50 is 40.6 µM (inactive) in the experiment with HCC 2998; 22.6 µM (inactive) in the experiment with RPMI-8226; 55.7 µM (inactive) in the experiment on IGROV-1; 32.5 µM (inactive) with M14; 27.3 µM in the experiment on HCT-15; 16.9 µM (inactive) with SK-MEL-2. The GI50 was 34.8 µM (inactive) with OVCAR-4; 44.3 µM (inactive) in the experiment on HOP-62; 32.8 µM (inactive) in the experiment with OVCAR-8; 27 µM (inactive) in the experiment on Malme-3M; 48.8 µM (inactive) with SK-OV-3; 25.6 µM (inactive) with UO-31. Moreover, the GI50 in the experiment on NCI-H23 was 34 µM (inactive); with RXF 393, 22.3 µM (inactive); in the experiment with HCT-116 it was 21.2 µM (inactive); in the experiment on SR it was 25.5 µM (inactive); in the experiment with OVCAR-5, 26.5 µM (inactive).

Turning to `CCCc1c(C(=O)OCC)[nH]c(-c2ccc(-c3[nH]c(C(=O)OCC)c(CCC)c3C(=O)OCC)o2)c1C(=O)OCC`, the GI50 with HCC 2998 was > 100 µM (inactive); in the experiment with RPMI-8226 it was > 100 µM (inactive); in the experiment with IGROV-1 it was > 100 µM (inactive); in the experiment on M14, > 100 µM (inactive); with HCT-15, more than 100 µM; in the experiment on SK-MEL-2, > 100 µM (inactive). For the same compound, the GI50 with OVCAR-4, in the experiment on A498, with OVCAR-8, with Malme-3M, in the experiment with SK-OV-3 and in the experiment with TK-10 was > 100 µM (inactive) each time. Besides, the GI50 in the experiment with UO-31, with NCI-H23, in the experiment with RXF 393, in the experiment with HCT-116, with SR and in the experiment with OVCAR-5 was > 100 µM (inactive) in each case.

Consider `COc1ccc2nc3cc(Cl)ccc3c(Sc3ccc([N+](=O)[O-])cc3C)c2c1`, for which the GI50 in the experiment with HCC 2998 is > 100 µM (inactive); in the experiment with IGROV-1, > 100 µM (inactive); with M14 it was > 100 µM (inactive); in the experiment on HCT-15, more than 100 µM; in the experiment with SK-MEL-2 it was > 100 µM (inactive); with OVCAR-4 it was > 100 µM (inactive). In addition, the GI50 with A498, in the experiment on HOP-62, in the experiment with OVCAR-8, with Malme-3M, with SK-OV-3 and in the experiment on TK-10 was > 100 µM (inactive) throughout. The GI50 in the experiment with UO-31, with NCI-H23, in the experiment with RXF 393, with HCT-116, with SR and with OVCAR-5 was > 100 µM (inactive) throughout.

Consider `Cc1ccccc1NC(=O)C(=O)C1CN(c2ccccc2)N=C1N` (stereo unspecified), for which the GI50 in the experiment on HCC 2998, in the experiment on IGROV-1, with M14, in the experiment on OVCAR-4, with A498 and in the experiment with HOP-62 was > 100 µM (inactive) in each case. Further, the GI50 in the experiment on OVCAR-8, with Malme-3M, with SK-OV-3, in the experiment on UO-31, in the experiment with NCI-H23 and in the experiment with RXF 393 was > 100 µM (inactive) each time. Also, the GI50 with HCT-116 and in the experiment on SR was > 100 µM (inactive) each time.

Take `C=C/C=C/NC(=O)OCc1ccccc1`: the GI50 is 82.8 µM (inactive) in the experiment with RPMI-8226; > 100 µM (inactive) with IGROV-1; > 100 µM (inactive) with M14; > 100 µM (inactive) in the experiment on SK-MEL-2; > 100 µM (inactive) in the experiment with OVCAR-4; > 100 µM (inactive) with HOP-62. In addition, the GI50 in the experiment on OVCAR-8, in the experiment with SK-OV-3, in the experiment with TK-10, in the experiment on UO-31, in the experiment with RXF 393 and with HCT-116 was > 100 µM (inactive) throughout. Further, the values for the GI50 in the experiment on SR and with OVCAR-5 were 98.9 µM (inactive) and > 100 µM (inactive), respectively.

In the case of `CC(=O)NC1=C(NCC(C)(C)C)C(=O)c2ccccc2C1=O`, the GI50 is > 100 µM (inactive) with HCC 2998; > 100 µM (inactive) in the experiment with IGROV-1; > 100 µM (inactive) in the experiment on M14; 55.3 µM in the experiment on HCT-15; 69 µM (inactive) with SK-MEL-2; > 100 µM (inactive) in the experiment on OVCAR-4. Further, the GI50 in the experiment with HOP-62 is > 100 µM (inactive); in the experiment with OVCAR-8, 70.6 µM (inactive); with Malme-3M, 34.3 µM (inactive); in the experiment with SK-OV-3, > 100 µM (inactive); in the experiment on TK-10 it was > 100 µM (inactive); in the experiment on UO-31, 46.3 µM (inactive). Moreover, the GI50 with NCI-H23 was 56.5 µM (inactive); in the experiment on RXF 393 it was 37 µM (inactive); with HCT-116 it was 33.7 µM (inactive); with SR, > 100 µM (inactive).

For the compound `COc1cc(/C=C2\CCC(C)C3=C2N=c2s/c(=C/c4ccc(Cl)cc4)c(=O)n2C3c2cc(OC)c(OC)c(OC)c2)cc(OC)c1OC` (stereo unspecified), the GI50 was > 100 µM (inactive) in the experiment with RPMI-8226; 20.5 µM (inactive) in the experiment on IGROV-1; > 100 µM (inactive) with M14; more than 100 µM in the experiment with HCT-15; > 100 µM (inactive) in the experiment on SK-MEL-2; > 100 µM (inactive) with OVCAR-4. In addition, the GI50 in the experiment on A498, with HOP-62, with OVCAR-8, with SK-OV-3, in the experiment with TK-10 and in the experiment on UO-31 was > 100 µM (inactive) each time. The GI50 in the experiment with RXF 393, with HCT-116, with SR and with OVCAR-5 was > 100 µM (inactive) each time.

As to `NC(=O)OCC1=C(COC(N)=O)C(=O)c2c(O)ccc(O)c2C1=O`, the GI50 in the experiment with HCC 2998 was > 100 µM (inactive); with RPMI-8226, > 100 µM (inactive); in the experiment on IGROV-1, > 100 µM (inactive); in the experiment with M14, > 100 µM (inactive); with HCT-15, more than 100 µM; in the experiment with SK-MEL-2, 78.7 µM (inactive). The GI50 in the experiment on OVCAR-4, with A498, in the experiment with HOP-62, with OVCAR-8, with Malme-3M and in the experiment with SK-OV-3 was > 100 µM (inactive) in each case. The GI50 with TK-10, in the experiment on UO-31, in the experiment with NCI-H23, in the experiment on HCT-116, with SR and with OVCAR-5 was > 100 µM (inactive) throughout.

As to `Cn1cnc([N+](=O)[O-])c1Sc1nc2cc([N+](=O)[O-])ccc2[nH]1`, the GI50 in the experiment on HCC 2998 is 15 µM (inactive); with RPMI-8226, 21.6 µM (inactive); in the experiment on IGROV-1, 19 µM (inactive); in the experiment with M14 it was 34.4 µM (inactive); in the experiment with HCT-15, 13.5 µM; in the experiment with OVCAR-4, 46.6 µM (inactive). Moreover, the GI50 is 29.6 µM (inactive) with A498; > 100 µM (inactive) in the experiment on HOP-62; 14.7 µM (inactive) in the experiment with OVCAR-8; > 10 µM (inactive) with Malme-3M; 22 µM (inactive) with SK-OV-3; 19.5 µM (inactive) with TK-10. In addition, the GI50 with UO-31 was 19.1 µM (inactive); in the experiment with NCI-H23 it was 23.8 µM (inactive); in the experiment on RXF 393, 17.5 µM (inactive); with HCT-116 it was 23.4 µM (inactive); with SR, 9.29 µM (inactive); in the experiment on OVCAR-5, 48.4 µM (inactive).
